Source: ChEMBL document CHEMBL1201862, “PubChem BioAssay data set” (2004)
Calls of active or inactive are those of the source.

Legend:
[1] = biological target: 1-acylglycerol-3-phosphate O-acyltransferase ABHD5/Perilipin-5 (Homo sapiens, UniProt Q00G26+Q8WTS1); experiment: Luminescence-based biochemical high throughput dose response assay for inhibitors of the interaction of the lipase co-activator protein, abhydrolase domain containing 5 (ABHD5) with perilipin-5 (MLDP; PLIN5) (2K validation set). [Related pubchem assays (depositor defined):AID493035, AID493241]
Perilipin-1/ABHD5 = Perilipin-1/ABHD5 (Homo sapiens, UniProt O60240+Q8WTS1); experiment: Luminescence-based biochemical high throughput dose response assay for inhibitors of the interaction of the lipase co-activator protein, abhydrolase domain containing 5 (ABHD5) with perilipin-1 (PLIN1) (2K validation set). [Related pubchem assays (depositor defined):AID493027, AID493057]
Troponin, cardiac muscle = Troponin, cardiac muscle (Homo sapiens, UniProt P19429+P45379+P63316); experiment: Fluorescence-based biochemical high throughput dose response assay for activators of the calcium sensitivity of cardiac Regulated Thin Filaments (RTF). [Related pubchem assays (depositor defined):AID493008, AID493018, AID504382, AID504383]; format: protein-complex assay
[2] = A Cell Based Secondary Assay To Explore Cytotoxicity of Compounds that Sensitize Mycobacterium Tuberculosis to Beta-Lactam Antibiotics.; format: functional
[3] = Trypanosoma cruzi growth suppression in host cells – NIH3T3 host cells, beta-gal luminescence, confirmation (AID 2044); format: functional, cell-based;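 note: intracellular parasites grown in NIH/3T3 mouse fibroblasts as host cells; luminescent beta-galactosidase reporter signal from transgenic T. cruzi replicating inside host cells; inhibitors lower the luminescence signal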
[4] = NIH3T3 cell viability loss – ATP luminescence, mouse fibroblasts, counter-screen, dose response (AID 2010); format: functional, cell-based;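 note: cells exposed to compound for about 90 hours before reading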
[5] = biological target: NACHT, LRR and PYD domains-containing protein 3 (Homo sapiens, UniProt Q96P20); experiment: NALP3 inhibitors in yeast, dose response, luminescent (AID 488799); format: functional
[6] = biological target: T1, Delta-type opioid receptor (Homo sapiens, UniProt P41143); experiment: HTS Image-Based Screen for Antagonists of the DOR Receptor. [Related pubchem assays (depositor defined):AID1777, AID1785, AID1786, AID2133]; format: functional
Mu-type opioid receptor [7] = biological target: T2, Mu-type opioid receptor (Homo sapiens, UniProt P35372); experiment: HTS Image-Based Screen for Agonists of the MOR Receptor. [Related pubchem assays (depositor defined):AID1777, AID1785, AID1786, AID2133]; format: functional
[8] = biological target: T1, Delta-type opioid receptor; experiment: HTS Image-Based Screen for Agonists of the DOR Receptor. [Related pubchem assays (depositor defined):AID1777, AID1786, AID2133]; format: functional
[9] = biological target: T3, Kappa-type opioid receptor (Homo sapiens, UniProt P41145); format: functional
[10] = biological target: T3, Kappa-type opioid receptor; format: functional; remark: listed apart in the source
[11] = biological target: T3, Kappa-type opioid receptor; experiment: SAR analysis of small molecule agonists of the kappa opioid receptor via a luminescent beta-arrestin assay. [Related pubchem assays (depositor defined):AID1777, AID1786, AID1966, AID2133, AID2136, AID2348, AID2352, AID2357, AID2359, AID2370, AID2420, AID2478, AID2491, AID2492, AID2493, AID2497, AID2498, AID2500, AID449737, AID488822, AID488842]; format: functional
Mu-type opioid receptor [12] = biological target: T2, Mu-type opioid receptor; experiment: mu opioid receptor activators, image-based, SAR follow-up (AID 2352); format: functional
[13] = biological target: T1, Delta-type opioid receptor; experiment: DOR agonists, SAR follow-up, image-based (AID 2370); format: functional
[14] = biological target: T3, Kappa-type opioid receptor; experiment: kappa opioid receptor blockers, image-based, SAR follow-up (AID 2348); format: functional
Mu-type opioid receptor [15] = biological target: T2, Mu-type opioid receptor; experiment: mu opioid receptor blockers – image-based, SAR follow-up (AID 2420); format: functional;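 note: compounds added before stimulation of receptor with agonist DAMGO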
[16] = biological target: T3, Kappa-type opioid receptor; experiment: kappa opioid receptor activation potency – imaging, image-based, SAR follow-up (AID 2359); format: functional
[17] = biological target: T1, Delta-type opioid receptor; experiment: delta opioid receptor blockers – image-based, SAR follow-up (AID 2357); format: functional
[18] = biological target: T4, Runt-related transcription factor 1/Core-binding factor subunit beta (Homo sapiens, UniProt Q01196+Q13951); experiment: disruptors of Runt domain/CBFb-SMMHC interaction – biochemical, FRET, Cerulean-Runt, Venus-CBFb-SMMHC, uHTS, […] (AID 1434); format: protein assay
[19] = biological target: T5, Voltage-gated N-type calcium channel alpha-1B subunit/Amyloid beta A4 precursor protein-binding family A member 1 (Homo sapiens, UniProt Q00975+Q02410); format: protein assay
[20] = biological target: T4, Runt-related transcription factor 1/Core-binding factor subunit beta; experiment: Runt domain/CBFb-SMMHC interaction disruptors – biochemical, TR-FRET (AID 1438); format: protein assay
[21] = biological target: T5, Voltage-gated N-type calcium channel alpha-1B subunit/Amyloid beta A4 precursor protein-binding family A member 1; format: protein assay; remark: listed apart in the source
[22] = biological target: Induced myeloid leukemia cell differentiation protein Mcl-1 (Homo sapiens, UniProt Q07820); format: functional
[23] = biological target: T5, Voltage-gated N-type calcium channel alpha-1B subunit/Amyloid beta A4 precursor protein-binding family A member 1; experiment: disruptors of Mint-PDZ/N-type channel peptide interaction – biochemical, HTRF, set 2, SAR follow-up (AID 434980); format: functional
[24] = biological target: T5, Voltage-gated N-type calcium channel alpha-1B subunit/Amyloid beta A4 precursor protein-binding family A member 1; experiment: disruptors of Mint-PDZ/N-type channel peptide interaction – biochemical, HTRF, SAR follow-up (AID 2489); format: functional
[25] = biological target: 26S proteasome non-ATPase regulatory subunit 14 (Homo sapiens, UniProt O00487); experiment: inhibition of proteasome subunit RPN11 – biochemical, fluorescence polarization, uHTS hits, confirmation (AID 602368); format: functional
[26] = biological target: 72 kDa type IV collagenase (Homo sapiens, UniProt P08253); experiment: Dose Response validation of uHTS RPN11 inhibitor hits using a MMP-2 Fluorescence assay.; format: functional
Prothrombin = Prothrombin (Bos taurus, UniProt P00735); experiment: thrombin protease inhibitors – biochemical, fluorescence polarization, uHTS hits, dose response (AID 602369); format: functional
[27] = biological target: T6, Probable nicotinate-nucleotide adenylyltransferase (Staphylococcus aureus (strain N315), UniProt P65502); format: functional, Staphylococcus aureus subsp. aureus N315;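 for IC50 Mean: confirmatory dose-response retesting of NadD inhibitor hits first found in an ultra-high-throughput screen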
[28] = biological target: T6, Probable nicotinate-nucleotide adenylyltransferase; format: functional, Staphylococcus aureus subsp. aureus N315; settings: read-out: IC50_Mean
Mu-type opioid receptor [29] = biological target: T2, Mu-type opioid receptor; experiment: SAR Analysis of Antagonists of the MOR Receptor using an Image-Based Assay - Set 3. [Related pubchem assays (depositor defined):AID1777, AID1785, AID1786, AID1966, AID2133, AID2136, AID2284, AID2285, AID2420]; format: functional
[30] = biological target: T1, Delta-type opioid receptor; experiment: SAR Analysis of Antagonists of the DOR Receptor using an Image-Based Assay - Set 3. [Related pubchem assays (depositor defined):AID1777, AID1785]; format: functional
[31] = biological target: T3, Kappa-type opioid receptor; experiment: SAR analysis of small molecule antagonists of the kappa opioid receptor via a luminescent beta-arrestin assay - Set 3. [Related pubchem assays (depositor defined):AID1777, AID1778, AID1785, AID1786, AID1966, AID2133, AID2136, AID2285, AID2495]; format: functional
[32] = biological target: T3, Kappa-type opioid receptor; experiment: SAR analysis of Antagonists of the Kappa Opioid Receptor (KOR) using an Image-Based Assay - Set 3. [Related pubchem assays (depositor defined):AID1777, AID1785]; format: functional
Hexokinase = Hexokinase (Trypanosoma brucei, UniProt Q38C41); experiment: Confirmation assay for inhibitors of Trypanosoma brucei hexokinase 1-Analogue-first series. [Related pubchem assays (depositor defined):AID1430, AID1632, AID2516, AID2560, AID2579, AID2600, AID449725, AID492951]; format: functional
[33] = luciferase reporter signal suppression in cells – H4 neuroglioma cells, luminescence, dose response (AID 1990); format: functional, cell-based
[34] = Luminescence Cell-Based Dose Response HTS to Identify Inhibitors of 5'UTR Stem-Loop Driven Prion Protein mRNA Translation in H4 Neuroglioblastoma Cells. [Related pubchem assays: 1827 (Project Summary), 1813 (Primary HTS)]; format: functional
[35] = alpha-synuclein stem-loop luciferase translation blockers – H4 neuroglioma cells, luminescence, confirmation (AID 1988); format: functional, cell-based
[36] = biological target: T7, Mannose-6-phosphate isomerase (Homo sapiens, UniProt P34949); experiment: MPI enzyme activity inhibition – biochemical, fluorescence intensity, coupled assay, primary screen (AID 1209)
T7 sequence (P34949 whole entry): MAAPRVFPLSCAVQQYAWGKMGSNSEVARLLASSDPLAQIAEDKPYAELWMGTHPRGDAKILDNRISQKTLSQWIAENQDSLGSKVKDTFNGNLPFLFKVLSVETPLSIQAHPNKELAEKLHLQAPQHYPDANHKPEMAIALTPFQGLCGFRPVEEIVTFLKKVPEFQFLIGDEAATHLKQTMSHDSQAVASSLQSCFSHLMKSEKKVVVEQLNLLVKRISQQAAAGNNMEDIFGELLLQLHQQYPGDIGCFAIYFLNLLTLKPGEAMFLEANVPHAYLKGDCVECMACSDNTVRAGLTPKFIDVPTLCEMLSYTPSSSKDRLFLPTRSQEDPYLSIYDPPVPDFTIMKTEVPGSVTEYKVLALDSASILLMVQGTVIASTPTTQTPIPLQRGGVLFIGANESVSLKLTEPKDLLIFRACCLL

[37] = biological target: T7, Mannose-6-phosphate isomerase; experiment: MPI inhibition at elevated mannose 6-phosphate – biochemical, fluorescence intensity, high mannose 6-phosphate, primary screen (AID 1220)
[38] = THP-1 cell cytotoxicity, dose response, cytotoxicity control for non-replicating M. tuberculosis project (AID 489025); format: functional
[39] = HepG2 cell cytotoxicity, dose response, cytotoxicity control for non-replicating M. tuberculosis project (AID 489018); format: functional; settings: Mycobacterium tuberculosis
[40] = Vero E6 cell cytotoxicity, dose response, cytotoxicity control for non-replicating M. tuberculosis project, secondary assay (AID 492998); format: functional, VeroE6; settings: Vero C1008
[41] = biological target: Lysine-specific demethylase 4C (Homo sapiens, UniProt Q9H3R0); experiment: inhibition of JMJD2C H3K9me3 demethylation – biochemical, DELFIA europium, cherry-picked samples, dose response (AID 488835); format: functional
cells = format: functional
INS1 = experiment: INS-1E survival protection against cytokine death – cell-based, luminescence, retest, dose response (AID 449756); format: functional; settings: Rattus norvegicus;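 note: cell death triggered by IL-1 beta plus TNF-alpha plus IFN-gamma mixture; protective hits raise ATP signal compared with cytokine alone wells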
Protein Wnt-3a = Protein Wnt-3a (Mus musculus, UniProt P27467); experiment: antagonism of Wnt3a pathway luciferase reporter – Wnt-LIGHT cells, luminescence, selectivity assay for Gli-SUFU antagonist project, dose response (AID 651570); format: functional; settings: read-out: IC50_Mean;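 note: Wnt-LIGHT reporter cells stimulated with conditioned medium from Wnt3a-producing cells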

COc1ccccc1C(=O)Oc1ccc2c(c1)O/C(=C\c1ccncc1)C2=O
IC50 [1]: 8.12 µM (active)
IC50 (Perilipin-1/ABHD5): 6.72 µM (active)
EC50 (Troponin, cardiac muscle): 13.7 µM (inactive)

O=C(CCS(=O)(=O)c1ccccc1)N(CCCN1CCOCC1)c1nc2c(F)cccc2s1
CC50 [2]: > 40 µM (active)
EC50 [3]: 3.11 µM (active)
EC50 [4]: 4.45 µM (active)
IC50 [5]: 2.07 µM (active)

CCC(C)(C(=O)NC1CCCCC1)N(Cc1ccco1)C(=O)c1cnccn1 (stereo not given)
IC50 [6]: > 32 µM (inactive)
EC50 (Mu-type opioid receptor [7]): > 32 µM (inactive)
EC50 [8]: > 32 µM (inactive)
EC50 [9]: 1.75 µM
EC50 [10]: 2.47 µM
EC50 [11]: 3.71 µM (active)
EC50 (Mu-type opioid receptor [12]): > 32 µM (inactive)
EC50 [13]: > 32 µM (inactive)
IC50 [14]: > 32 µM (inactive)
IC50 (Mu-type opioid receptor [15]): > 32 µM (inactive)
EC50 [16]: 1.36 µM (active)
IC50 [17]: > 32 µM (inactive)

CN(CCC#N)C(=O)COC(=O)c1c2c(nc3ccccc13)/C(=C/c1ccco1)CC2
IC50 [18]: 62.4 µM (inactive)
IC50 [19]: 6.34 µM (active)
IC50 [20]: > 100 µM (inactive)
IC50 [21]: 3.22 µM (active)
IC50 [22]: 1.44 µM (active)
IC50 [23]: 2.82 µM (active)
IC50 [24]: 6.19 µM (active)
IC50 [25]: 4.76 µM (active)
IC50 [26]: > 100 µM (inactive)
IC50 (Prothrombin): 6.71 µM (active)
IC50 [27]: 7.86 µM (active)
IC50 [28]: 16.9 µM (active)

Cc1ccc(CN(CCNC(=O)c2ccc(CNS(=O)(=O)c3ccc(C)cc3)cc2)C(C)C)cc1
IC50 (Mu-type opioid receptor [29]): > 32 µM (inactive)
IC50 [30]: > 32 µM (inactive)
IC50 [31]: 1.17 µM (active)
IC50 [32]: 0.246 µM (active)

COc1ccc(C(=O)Nc2c(C(=O)O)ccc(Cl)c2Cl)cc1
IC50 (Hexokinase): > 25 µM (inactive)

Cc1cc(N/N=C/c2ccc(O)cc2O)nc(-n2nc(C)cc2C)n1
EC50 [33]: 10.9 µM (active)
EC50 [34]: 11.4 µM (active)
EC50 [35]: 11.2 µM (active)
IC50 [36]: > 50 µM (not active)
EC50 [3]: 2.05 µM (active)
EC50 [4]: > 30 µM (not active)
IC50 [37]: > 50 µM (not active)
CC50 [38]: 8.18 µM (active)
CC50 [39]: 11.4 µM (active)
CC50 [40]: 3.72 µM (active)
AC50 [41]: 2.7 µM (active)
IC50 (cells): 0.18 µM (active)
AC50 (INS1): 0.3 µM (active)
IC50 (Protein Wnt-3a): 41.3 µM (inactive)
